Patent publication EP0346759A2, “Cholestadiene derivatives, process for their preparation, and their use as medicines with a HMG-CoA reductase-inhibiting activity” (HOECHST AKTIENGESELLSCHAFT, priority 1988, dated 1989)

Test system: Cholesterin-Biosynthese
Assay: Inhibition of cholesterol biosynthesis in cell culture by 14C-precursor (14C sodium acetate) incorporation into cholesterol
Assay type: cell-based
Conditions: HEP-G2-Zellen, 1 % DMSO
Excerpt: Prüfung auf Cholesterin-Biosynthese-Hemmung In Zellkulturen durch ^14C-Präkursoreinbau In Cholesterin.
Monolayers von HEP G2-Zellen in lipoproteinfreiem Nährmedium wurden mit entsprechenden Konzentrationen der Prüfsubstanzen 1 Stunde vorinkubiert; nach Zugabe des ^14C-markierten Präkursors '^4C-Natriumacetat wurde die Inkubation für 3 Stunden fortgesetzt. Danach wurde ein Teil der Zellen bei vorheriger Zugabe eines internen Standards von ^3H-Cholesterin alkalisch verseift. Die Lipide der verseiften Zellen wurden mit Chloroform-Methanol extrahiert. Dieses Lipidgemisch wurde nach Zusatz von Träger-Cholesterin präparativ dünnschichtchromatographisch getrennt, die Cholesterin-Bande nach dem Sichtbarmachen mit Jod-Dämpfen isoliert und die aus dem ^14C-Präkursor gebildete Menge ^14C-Cholesterins szintigraphisch bestimmt. In einem aliquoten Teil der Zellen wurde Zellprotein bestimmt, sodaß die in der Zeiteinheit/mg Zellprotein aus ^14C-Präkursor gebildete Menge ^14C-Cholesterins berechnet werden kann. Zum Vergleich für die Hemmwirkung eines zugesetzten Prüfpräparates diente die Lösungsmittelkontrolle, sodaß direkt die Hemmung der Cholesterin-Biosynthese bei einer bestimmten molaren Konzentration des Prüfpräparates im Medium angegeben werden kann. In aliquoten Anteilen der Zellkultur wurde die Intaktheit der Zellkulturen und die fehlende Zellschädigung durch Präparate-Einwirkung morphologisch (Lichtmikroskop) beurteilt.
Cholesterol-Biosynthese-Hemmung Zellkultur: HEP-G2-Zellen Lösungsmittel-Endkonzentration: 1 % DMSO

3ß-Hydroxy-chola-5,23t-dien-24-carbonsäure-methylester [Beispiel 9]
IC50 (Cholesterol-Biosynthese-Hemmung): ~500 nM | Acetateinbau in Cholesterin im Vergleich zur Kontrolle (Präparat-Konzentration 1,0 x 10^-6 Mol/1, 1 µM): 52% | Acetateinbau in Cholesterin im Vergleich zur Kontrolle (Präparat-Konzentration 1,0 x 10^-7 Mol/1, 0.1 µM): 56% | Acetateinbau in Cholesterin im Vergleich zur Kontrolle (Präparat-Konzentration 2,5 x 10^-4 Mol/1, 250 µM): 6% | Acetateinbau in Cholesterin im Vergleich zur Kontrolle (Präparat-Konzentration 2,5 x 10^-5 Mol/1, 25 µM): 17%
